Source: patent publication US20220288052A1, “COMPOUND FOR COMBINATION TREATMENT” (priority 2019, published 2022)

Experiments:
NMRI mice [1] = experiment: Mouse forced swim test (mFST); format: in vivo; conditions: mFST (NMRI), p.o. 60 min
Protocol: Compound (I) was tested in two of the most widely used behavioural screens for predicting antidepressant effects in the clinic: the mouse forced swim test (mFST) and mouse tail suspension test (mTST).
In order to further characterize the role played by 5-HT and DA-ergic neurotransmission in the antidepressant-like effects of compound (I), the potential involvement of 5-HT1A and D1 receptors was investigated in the mFST.

C57 mice = experiment: Mouse tail suspension test (mTST); format: in vivo; conditions: i.p. 30 min
Protocol: C57 males, 25-28 g, Taconic, 16/8-06. Mice acclimatized to ground floor 5 days before testing. Mice saline injected once a day twice before test day. 22° C., N=7-8.

NMRI mice [2] = experiment: Locomotor activity (mLA); format: in vivo, mouse; conditions: mLA; for MED: p.o. 0 min
Protocol: FIG. 8: The effects of compound (I) on locomotor activity. Compound (I) p.o. in NMRI mice. TSE Motility.
(§1) Compound (I) was tested in a classical test often used to measure the ability of a compound to block the reuptake of 5-HT in vivo: nialamide-induced 5-HT syndrome (m5-HT). In addition, compound (I) was tested in a locomotor activity paradigm (mLA) as a measure of its ability to block the reuptake of DA and therefore induce motility. It is generally accepted that >60% DA transporter blockade is needed to induce increased motility in this test.

[3] = tested on: nialamide pre-treated mice; experiment: Nialamide-induced 5-HT syndrome (m5-HT); format: in vivo, mouse; conditions: m5-HT, p.o. 0 min
Protocol: 50 mg/kg nialamide s.c. t=120 min. Compound (I) p.o. t=0. n=4.
as §1

[4] = biological target: T1, dopamine transporter (DAT) (Mus musculus, UniProt Q61327); experiment: MPTP model of DAT inhibition (striatal dopamine depletion); format: in vivo, C57 mouse; set-up: Dopamine Mean ± SEM / DOPAC Mean ± SEM / HVA Mean ± SEM: unit not given here; conditions: MPTP 25 mg/kg s.c. alone
T1 construct: in vivo DAT transporter occupancy (open bars) in mouse striatum; from tissue; host or cells: mouse striatum (in vivo; C57 mice in the MPTP model)
Source text: In this model compound (I) induced protection against the dopamine depletion induced by the entry of the MPTP metabolite MPP+ into the dopamine terminals of the mouse C57 striatal tissue.

mice = experiment: Mouse zero maze (mZM); format: in vivo; conditions: mZero maze, p.o., 7 days OD
Protocol: Mice were treated (peroral administration) for 7 days with either, vehicle, duloxetine (10 mg/kg), and compound I (0.1 mg/kg, 1 mg/kg, and 3 mg/kg) (n=8 in each group).
(§2) Compound (I) was tested in three widely used behavioural screens for predicting anxiolytic effects in the clinic: the mouse marble burying test (mMB), mouse zero maze (mZM) and mouse stress-induced hyperthermia test (mSIH).

NMRI mice [5] = experiment: Mouse marble burying test (mMB); format: in vivo; conditions: Marble burying, p.o., −60 min
Protocol: FIG. 13: Marble burying. In the marble-burying test mice exposed to a novel object (marbles) bury them in the sawdust floor covering. Compounds showing anxiolytic-like activity decrease the number of buried marbles at non-sedative doses. […] The number of marbles covered by sawdust was counted at the end of a 60-min session.
as §2

NMRI mice [6] = experiment: Mouse stress-induced hyperthermia test (mSIH); format: in vivo; conditions: mSIH, p.o., −60 min
Protocol: FIG. 14: Stress-induced hyperthermia. When mice are confronted with a stress-full event, the body temperature rises.
as §2

T1 sequence (Q61327 whole entry): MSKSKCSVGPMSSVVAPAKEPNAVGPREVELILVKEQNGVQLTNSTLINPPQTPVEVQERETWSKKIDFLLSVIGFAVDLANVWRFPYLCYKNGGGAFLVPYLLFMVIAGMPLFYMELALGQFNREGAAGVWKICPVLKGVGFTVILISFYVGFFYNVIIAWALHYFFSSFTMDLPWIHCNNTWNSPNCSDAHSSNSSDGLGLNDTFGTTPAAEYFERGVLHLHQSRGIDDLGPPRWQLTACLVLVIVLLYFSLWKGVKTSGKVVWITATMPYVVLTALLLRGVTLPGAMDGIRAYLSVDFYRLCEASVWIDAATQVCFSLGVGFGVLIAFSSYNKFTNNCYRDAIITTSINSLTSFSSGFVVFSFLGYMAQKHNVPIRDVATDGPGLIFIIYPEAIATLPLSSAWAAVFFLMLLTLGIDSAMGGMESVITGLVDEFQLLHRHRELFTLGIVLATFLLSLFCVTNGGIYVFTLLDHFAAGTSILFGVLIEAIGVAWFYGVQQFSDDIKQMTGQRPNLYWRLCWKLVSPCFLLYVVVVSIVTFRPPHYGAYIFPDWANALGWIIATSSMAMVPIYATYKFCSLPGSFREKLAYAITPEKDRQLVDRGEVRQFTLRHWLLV

| Compound | MED (NMRI mice [1]) [mg/kg] | MED (C57 mice) [mg/kg] | MED (NMRI mice [2]) [mg/kg] | MED [3] [mg/kg] | DOPAC Mean ± SEM [4] | HVA Mean ± SEM [4] | Dopamine Mean ± SEM ([4]; mouse striatal tissue) | Effect on locomotor activity (NMRI mice [2]; p.o.) | MED (mice) [mg/kg] | MED (NMRI mice [5]) [mg/kg] | MED (NMRI mice [6]) [mg/kg] |
| --- | --- | --- | --- | --- | --- | --- | --- | --- | --- | --- | --- |
| CN(C)CCCC1(c2ccc(F)cc2)OCc2cc(C#N)ccc21 (stereo not drawn) [Citalopram, reference compound] | 10 | <5 | >60 | 10 |  |  |  |  |  |  |  |
| CN1CC=C(c2ccccc2)CC1 [MPTP, reference compound] |  |  |  |  | 1 ± 0.2 | 0.7 ± 0.1 | 4.2 ± 0.6 |  |  |  |  |
| CNCC[C@H](Oc1cccc2ccccc12)c1cccs1 [Duloxetine, reference compound] | 30 | 10 | >60 | 10 |  |  |  | without effect | <10 | 10 | >30 |
